The source of these data is ChEMBL document CHEMBL4033748, “SAR and characterization of non-substrate isoindoline urea inhibitors of nicotinamide phosphoribosyltransferase (NAMPT)” (Bioorg Med Chem Lett, 2017).

The nature of series [1]: Aqueous solubility of the compound. The series is classed as physicochemical. The conditions noted are these: buffer.
Series [2] relates to Liver. Briefly: Unbound intrinsic clearance in mouse liver microsomes at 0.5 uM in presence of NADPH incubated for 5 to 30 mins by HPLC-MS/MS method. The class given is ADME, microsome. (Liver microsomes are vesicles of endoplasmic reticulum, rich in cytochrome P450 enzymes.)
The subject of series [3] is Liver. Put plainly: Unbound intrinsic clearance in human liver microsomes at 0.5 uM in presence of NADPH incubated for 5 to 30 mins by HPLC-MS/MS method. The class given is ADME, microsome.
The test system of series [4] is PC-3. Put plainly: Antiproliferative activity against human PC3 cells assessed as reduction in cell viability incubated for 5 days by Cell-titer Glo reagent based assay. The class given is functional.

The term solubility denotes the concentration that dissolves in the medium under given conditions. A word on the IC50: it is the concentration at which inhibition is half-maximal. As to `N#CN=C(NCCCCCCOc1ccc(Cl)cc1)Nc1ccncc1` [CHS-828], the solubility in series [1] was less than 5 µM. Also, the CL free was 1360 mL/min/kg in series [2] and 567 mL/min/kg in series [3]. For the same compound, in series [4] (Homo sapiens, PC-3, 120 h), the IC50 came out at 4.4 nM.
As for `CC(C)CCn1cc(-c2ccc(NC(=O)N3Cc4ccccc4C3)cc2)cn1`, the solubility in series [1] was less than 5 µM. In addition, in series [4] (Homo sapiens, PC-3, 120 h), the IC50 was found to be 32 nM.
Compound `CCCNC(=O)c1ccc(NC(=O)N2Cc3ccccc3C2)cc1` had a solubility in series [1] of less than 5 µM. Besides, the CL free in series [2] was 71.7 mL/min/kg; in series [3], 56.7 mL/min/kg. The IC50 in series [4] (pc-3) amounted to 880 nM.
For the compound `CC(C)CCNC(=O)c1ccc(NC(=O)N2Cc3ccc(F)cc3C2)cc1`, the half-inhibitory concentration (IC50) in series [4] (pc-3) is 6.5 nM.
For the compound `CC(C)CCNC(=O)c1ccc(NC(=O)N2Cc3ccccc3C2)cn1`, the CL free in series [2] came to 1250 mL/min/kg; in series [3], 217 mL/min/kg. Further, the IC50 in series [4] (pc-3) was found to be 730 nM.
In the case of `O=C(Nc1ccc(N2CCN(C(=O)c3ccccc3)CC2)cc1)N1Cc2ccccc2C1`, the CL free in series [3] came to 130 mL/min/kg. Also, the IC50 in series [4] (Homo sapiens, PC-3, 120 h) was found to be 84 nM.
In turn, `O=C(Nc1ccc(C(=O)N2CCN(c3ccccn3)CC2)cc1)N1Cc2ccccc2C1` came in with a solubility in series [1] of less than 5 µM. Moreover, the CL free in series [2] is 183 mL/min/kg; in series [3], 63.3 mL/min/kg. Besides, in series [4] (Homo sapiens, PC-3, 120 h), the IC50 amounted to 19 nM.
Turning to `CC(C)C(=O)N1CCC(c2ccc(NC(=O)N3Cc4ccccc4C3)cc2)CC1`, the figures for the CL free in series [2] and in series [3] were 367 mL/min/kg and 58.3 mL/min/kg, respectively. The IC50 in series [4] (Homo sapiens, PC-3, 120 h) was 18 nM.
Regarding `CC(C)CCNC(=O)c1ccc(NC(=O)N2Cc3ccc(C#N)cc3C2)cc1`, in series [4] (Homo sapiens, PC-3, 120 h), the IC50 was more than 10000 nM.
For `O=C(Nc1ccc(C2CCN(C(=O)c3ccccc3)CC2)cc1)N1Cc2ccccc2C1`, the CL free in series [2] was 983 mL/min/kg; in series [3] it was 183 mL/min/kg. Besides, the IC50 in series [4] (Homo sapiens, PC-3, 120 h) came out at 2.8 nM.
`COc1ccc2c(c1)CN(C(=O)Nc1ccc(C(=O)NCCC(C)C)cc1)C2`: in series [4] (pc-3), the IC50 is more than 10000 nM.
Consider `CC(C)CCNC(=O)c1ccc(NC(=O)N2Cc3ccc(C(F)(F)F)cc3C2)cc1`, for which the IC50 in series [4] (pc-3) is more than 10000 nM.
In turn, `NC(=O)c1ccc(NC(=O)N2Cc3ccccc3C2)cc1` displayed a solubility in series [1] of less than 5 µM. The CL free was 148 mL/min/kg in series [2] and 20 mL/min/kg in series [3]. Moreover, in series [4] (pc-3), the IC50 was 8000 nM.
For `CC(C)CCNC(=O)c1ccc(NC(=O)N2Cc3ccccc3C2)nc1`, the CL free was 283 mL/min/kg in series [2] and 53.3 mL/min/kg in series [3]. The IC50 in series [4] (pc-3) came out at 14 nM.
Regarding `CCC(C)C(=O)N1CCC(Oc2ccc(NC(=O)N3Cc4ccccc4C3)cc2)CC1` (centres undefined), the CL free in series [2] is 2780 mL/min/kg; in series [3], 633 mL/min/kg. Further, in series [4] (Homo sapiens, PC-3, 120 h), the IC50 is 48 nM.
In series [1], `O=C(NCCCc1ccccc1)c1ccc(NC(=O)N2Cc3ccccc3C2)cc1` came in with a solubility of less than 5 µM. Also, the CL free in series [3] came to 17670 mL/min/kg. Further, in series [4] (Homo sapiens, PC-3, 120 h), the IC50 turned out to be 21 nM.
`O=C(NCCCCC1CCN(C(=O)c2ccccc2)CC1)N1Cc2ccccc2C1`: the results for the CL free in series [2] and in series [3] were 4670 mL/min/kg and 317 mL/min/kg, respectively. The IC50 in series [4] (Homo sapiens, PC-3, 120 h) is 8.4 nM.
The matching figures for `O=C(NCc1ccc(S(=O)(=O)c2ccccc2)cc1)N1Cc2ccccc2C1`: 3670 mL/min/kg, 650 mL/min/kg and more than 10000 nM.
With `Cc1ccc2c(c1)CN(C(=O)Nc1ccc(C(=O)NCCC(C)C)cc1)C2`, in series [4] (Homo sapiens, PC-3, 120 h), the IC50 is 10 nM.
For `CC(C)CCNC(=O)c1ccc(NC(=O)N2Cc3ccncc3C2)cc1`, the IC50 in series [4] (pc-3) is 8.4 nM.
On the same count and under the same terms, then `CC(C)CCNC(=O)c1ccc(NC(=O)N2Cc3cccc(Cl)c3C2)cc1`, with 640 nM.
In the case of `CC(C)CCNC(=O)c1ccc(NC(=O)N2Cc3ccc(CO)cc3C2)cc1`, the IC50 in series [4] (Homo sapiens, PC-3, 120 h) came out at 1.4 nM.
Regarding `O=C(Nc1ccc(C2=CCN(C(=O)c3ccccc3)CC2)cc1)N1Cc2ccccc2C1`, in series [3], the CL free is 217 mL/min/kg. Moreover, the IC50 in series [4] (Homo sapiens, PC-3, 120 h) turned out to be 8.1 nM.
